Reference: US8193364B2, “Insecticidal N-substituted (6-haloalkylpyridin-3-yl)-alkyl sulfoximines” (Dow AgroSciences, LLC., priority 2006, dated 2012)

Experiments:
Assay type in all cases: in vivo
[1] = system: Sweet Potato Whitefly (Bemisia tabaci); assay: Sweet potato whitefly foliar spray assay on cotton; conditions: 12 days, live large nymphs
Description: This test was designed to measure the capability of whitefly eggs and/or young nymphs to develop to large nymphs. Cotton seedlings at the growth stage of one or two expanding true leaf were trimmed so that only the first true leaf remained (cotyledon leaves were also removed). The plants were pre-infested with sweet potato whitefly eggs by keeping plants next to the colony-keeping plants for two days. The infested plants were carefully checked for presence of similar egg density before use in the insecticidal tests. Master solutions of test compounds at 1000 ppm were prepared in acetone:methanol (1:1). The 12.5 ppm spray solutions were then made by diluting 0.188 mL of the master solution with 14.812 ml of 0.025% Tween 20 in water. The lower concentrations were made by diluting the 12.5 ppm spray solution with a diluent consisting 98.75 parts of 0.025% Tween 20 in water and 1.25 parts of acetone:methanol (1:1). The diluent was used as solvent control. The test solutions were sprayed with a hand-held Devilbiss sprayer until runoff to both sides of the infested cotton leaves. Four plants (4 replications) were used for each treatment. Treated plants were held in a holding room for 12 days at approximately 23° C. and 40% RH before evaluation. To evaluate the efficacy of the compounds, the number of live large nymphs in an area of 1 square inch on the lower surface of the treated cotton leaves was counted under a microscope. Insecticidal activity was determined by Corrected % Control using Abbott's correction formula and presented in Table 5: Corrected % Control=100*(X−Y)/X • where X=No. of live large nymphs on solvent check plants • Y=No. of live large nymphs on treated plants

[2] = system: Eastern Subterranean Termite (Reticulitermes flavipes); assay: Eastern subterranean termite filter paper assay
Procedure: Activity of Compound 2 was evaluated for its activity on Eastern subterranean termite. Technical material of the test compound was formulated in acetone on a wt/wt basis to deliver 1000, 500, 200, 50, 12.5, 3.12 and 0.78 ppm to 42.5 mm Whatman No. 1 filter papers per 200 ul of pipetted solution. Each test concentration was applied to six filter papers (6 reps). Six acetone-only control units and six DI water-only control units were also prepared. The filter papers were dried overnight in the fume hood before they were placed into 60×15 mm Fisher Brand plastic Petri dishes. A volume of 200 ul DI water was pipetted onto each filter paper at the time of test set-up, just prior to infesting with termites. Ten worker termites were added to each Petri dish and covered. The infested Petri dishes were put in the laboratory Conviron at 28° C. and 60% RH. Termite mortality was recorded at 1, 2, 4, 7, and 10 days after infestation (DAI). Throughout the duration of the test, an average of 150 ul of DI water was added daily to the filter papers to retain moisture.

[3] = system: Cotton Aphid (Aphis gossypii); assay: Cotton aphid seed coating assay on squash; conditions: 10% SC formulation, infested 13 days after planting, counted 3 days later
Procedure: Compound 2 was tested in an assay designed to evaluate its systemic activity for control of cotton aphid through seed-coating prior to planting. The crop used in this assay was a hybrid squash (var. Pic-N-Pic). Test compound was formulated in a 10% SC formulation. For the 1 mg/seed treatment, the original 10% formulation was used. For the 0.1 mg/seed treatment, the 10% formulation were diluted 10× with DI water before application. Ten squash seeds were used for each treatment. Seeds were placed on waxed paper and a pipette was used to apply the original or diluted formulations to each seed. One half (5 ul) of the sample was spread onto one side of a seed. Once dried (approximately 1 hr), the seed was flipped over and the 2nd half of sample was spread over the other side. The air-dried, treated seeds were individually planted into 3 inch pots containing metro mix. The pots were placed on a California cart and moved into the greenhouse for sub watering only. Thirteen days later, when the seedlings were approximately 9 inch tall with three expanding true leaves, the 1st leaf was infested with approximately 40 wingless aphids. The infested plants were kept in an environmental holding room (23 C, 40% RH, 16 hr light: 8 hr dark) for three days before the number of live aphids was counted under a microscope. […]

[4] = system: Cat Flea (Ctenocephalides felis); assay: Cat flea filter wool assay; conditions: 48-hour observation
Procedure: Compound 2 was evaluated in a dose response series to establish the range of activity of the test compound. Technical material was dissolved in acetone and diluted with the same solvent to obtain the test concentrations. Bioassays were conducted by treating polyester aquarium filter wool with 1.0 ml of the test solution, thoroughly saturating the substrate and allowing it to dry for at least 1 hour. The dry filter wool was then placed into 10 cm plastic Petri dishes and covered with the lid. Each treatment was replicated 5 times. Approximately 15 unfed cat flea adults were placed into each replicate of each dosage being evaluated. Mortality was assessed at 2, 8, 24 and 48 hours after introduction of the fleas into the test system. The mean percent mortality for each dosage group and time interval was determined and results from the 48-hour observation are presented in Table 9.

## CC(c1ccc(C(F)(F)F)nc1)S(C)(=O)=NC#N (centres unmarked) [Compound 2, [1-(6-trifluoromethylpyridin-3-yl)ethyl](methyl)-oxido-λ^4-sulfanylidenecyanamide]
[1]; 0.781 ppm
  % Control at ppm, foliar spray, sweet potato whitefly on cotton: 80%
[1]; 3.125 ppm
  % Control at ppm, foliar spray, sweet potato whitefly on cotton: 94%
[1]; 12.500 ppm
  % Control at ppm, foliar spray, sweet potato whitefly on cotton: 100%
[2]; 1 DAI
  mortality at 0.78 ppm: 7%
  mortality at 3.13 ppm: 25%
  mortality at 12.5 ppm: 48%
  mortality at 50 ppm: 55%
  mortality at 200 ppm: 55%
  mortality at 500 ppm: 63%
  mortality at 1000 ppm: 87%
[2]; 2 DAI
  mortality at 0.78 ppm: 17%
  mortality at 3.13 ppm: 48%
  mortality at 12.5 ppm: 67%
  mortality at 50 ppm: 72%
  mortality at 200 ppm: 72%
  mortality at 500 ppm: 82%
  mortality at 1000 ppm: 90%
[2]; 4 DAI
  mortality at 0.78 ppm: 58%
  mortality at 3.13 ppm: 67%
  mortality at 12.5 ppm: 90%
  mortality at 50 ppm: 98%
  mortality at 200 ppm: 80%
  mortality at 500 ppm: 98%
  mortality at 1000 ppm: 100%
[2]; 7 DAI
  mortality at 0.78 ppm: 73%
  mortality at 3.13 ppm: 83%
  mortality at 12.5 ppm: 100%
  mortality at 50 ppm: 100%
  mortality at 200 ppm: 100%
  mortality at 500 ppm: 100%
  mortality at 1000 ppm: 100%
[2]; 10 DAI
  mortality at 0.78 ppm: 80%
  mortality at 3.13 ppm: 87%
  mortality at 12.5 ppm: 100%
  mortality at 50 ppm: 100%
  mortality at 200 ppm: 100%
  mortality at 500 ppm: 100%
  mortality at 1000 ppm: 100%
[3]; seed coating 0.1 mg/seed
  % Control, root uptake systemic, cotton aphid on squash: 99.7%
[3]; seed coating 1 mg/seed
  % Control, root uptake systemic, cotton aphid on squash: 100%
[4]; 5 ppm
  mortality at 5 ppm: 18%
[4]; 50 ppm
  mortality at 50 ppm: 25%
[4]; 500 ppm
  mortality at 500 ppm: 40%
[4]; 5,000 ppm
  mortality at 5000 ppm: 57%
